From ChEMBL document CHEMBL5576135, “Discovery of Indolo[3,2-c]isoquinoline Derivatives as Novel Top1/2 Dual Inhibitors with Orally Efficacious Antitumor Activity and Low Toxicity” (J Med Chem, 2024)
Active and inactive are the calls of the source. The calls are words filed in the database; no cut-off is given here.

Key:
[1] = Toxicity in Kunming mouse assessed as lethal dose at po administration for 2 weeks; type: organism-based; conditions: in vivo
[2] = Cmax in ICR mouse at 10 mg/kg,po measured upto 24 hrs by LC-MS/MS analysis; type: ADME, organism-based; conditions: in vivo
[3] = biological target: T1, DNA topoisomerase 1 (Homo sapiens) (UniProt P11387); assay: Inhibition of Topoisomerase I (unknown origin) using pBR322 DNA as substrate at 10 uM incubated for 15 mins by EtBr staining based agarose gel electrophoresis method
T1 sequence (whole entry): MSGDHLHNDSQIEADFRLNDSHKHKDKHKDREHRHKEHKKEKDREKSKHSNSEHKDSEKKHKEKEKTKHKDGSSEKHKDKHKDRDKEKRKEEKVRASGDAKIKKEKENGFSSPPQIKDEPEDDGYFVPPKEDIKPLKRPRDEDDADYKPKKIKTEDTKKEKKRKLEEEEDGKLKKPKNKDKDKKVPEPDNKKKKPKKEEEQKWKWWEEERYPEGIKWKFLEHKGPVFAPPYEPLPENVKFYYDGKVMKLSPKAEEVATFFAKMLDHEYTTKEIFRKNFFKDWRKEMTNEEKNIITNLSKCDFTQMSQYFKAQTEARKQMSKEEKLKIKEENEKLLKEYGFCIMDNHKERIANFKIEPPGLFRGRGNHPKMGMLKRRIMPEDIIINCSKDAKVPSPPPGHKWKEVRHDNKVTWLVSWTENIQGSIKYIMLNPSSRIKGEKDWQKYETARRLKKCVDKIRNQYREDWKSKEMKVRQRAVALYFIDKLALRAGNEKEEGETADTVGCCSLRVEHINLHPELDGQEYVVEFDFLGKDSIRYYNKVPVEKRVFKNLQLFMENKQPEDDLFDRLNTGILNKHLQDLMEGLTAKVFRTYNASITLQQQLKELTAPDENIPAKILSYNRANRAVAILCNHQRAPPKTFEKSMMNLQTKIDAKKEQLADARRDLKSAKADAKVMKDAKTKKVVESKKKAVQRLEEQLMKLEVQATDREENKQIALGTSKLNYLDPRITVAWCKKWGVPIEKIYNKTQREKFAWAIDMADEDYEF

[4] = Toxicity in Kunming mouse assessed as change in organ coefficient of heart at 100 mg/kg,po administration for 2 weeks; type: organism-based; conditions: in vivo, 336 h
MCF7 = assay: Antiproliferative activity against human MCF7 cells assessed as inhibition of cell growth incubated for 96 hrs by MTT based ELISA; type: functional; conditions: MCF7, 96 h
[5] = Toxicity in Kunming mouse assessed as change in serum creatinine level at 100 mg/kg,po administration for 2 weeks; type: organism-based; conditions: in vivo, 336 h
NCI-H446 [6] = assay: Induction of DNA damage in human NCI-H446 cells assessed as increase in intracellular ROS level at 4 to 8 uM incubated for 6 hrs by DCFHDA probe based fluorescence microscopic analysis; type: functional, cell-based; conditions: dose 4-8 µM
[7] = biological target: DNA topoisomerase 2-alpha (Homo sapiens) (UniProt P11388); assay: Inhibition of Topoisomerase 2 (unknown origin) using pBR322 DNA as substrate at 50 uM incubated for 15 mins by EtBr staining based agarose gel electrophoresis method
NCI-H446 [8] = assay: Inhibition of colony formation in human NCI-H446 cells at 1 uM incubated for 24 hrs by crystal violet staining based analysis relative to control; type: functional
NCI-H1650 = assay: Antiproliferative activity against human NCI-H1650 cells assessed as inhibition of cell growth incubated for 96 hrs by MTT based ELISA; type: functional; conditions: NCI-H1650, 96 h
NCI-H2228 = assay: Antiproliferative activity against human NCI-H2228 cells assessed as inhibition of cell growth incubated for 96 hrs by MTT based ELISA; type: functional; conditions: NCI-H2228, 96 h
[9] = Toxicity in Kunming mouse assessed as morphological change in lung at 100 mg/kg,po administration for 2 weeks; type: organism-based; conditions: in vivo, 336 h
A549 = assay: Antiproliferative activity against human A549 cells assessed as inhibition of cell growth incubated for 96 hrs by MTT based ELISA; type: functional; conditions: A549, 96 h
[10] = biological target: DNA topoisomerase 2-alpha (Homo sapiens) (UniProt P11388); assay: Inhibition of Topoisomerase 2 (unknown origin) using pBR322 DNA as substrate at 100 uM incubated for 15 mins by EtBr staining based agarose gel electrophoresis method relative to control
NCI-H446 [11] = assay: Induction of cell cycle arrest in human NCI-H446 cells assessed as accumulation of cells at S phase at 2 uM incubated for 48 hrs by propidium iodide/RNase A staining based flow cytometry relative to control; type: functional
[12] = Toxicity in Kunming mouse assessed as change in organ coefficient of kidney at 100 mg/kg,po administration for 2 weeks; type: organism-based; conditions: in vivo, 336 h
NCI-H446 [13] = assay: Induction of DNA damage in human NCI-H446 cells assessed as increase in DNA fragments at 8 uM incubated for 48 hrs by comet assay; type: functional, cell-based
[14] = Toxicity in Kunming mouse assessed as change in organ coefficient of liver at 100 mg/kg,po administration for 2 weeks; type: organism-based; conditions: in vivo, 336 h
[15] = Toxicity in Kunming mouse assessed as change in serum ALT level at 100 mg/kg,po administration for 2 weeks; type: organism-based; conditions: in vivo, 336 h
[16] = Antiproliferative activity against human BEAS-2B cells assessed as inhibition of cell growth incubated for 96 hrs by MTT based ELISA; type: toxicity
[17] = Tmax in ICR mouse at 10 mg/kg,po measured upto 24 hrs by LC-MS/MS analysis; type: ADME, organism-based; conditions: in vivo
[18] = Half life in ICR mouse at 10 mg/kg,po measured upto 24 hrs by LC-MS/MS analysis; type: ADME, organism-based; conditions: in vivo
PC-3 = assay: Antiproliferative activity against human PC-3 cells assessed as inhibition of cell growth incubated for 96 hrs by MTT based ELISA; type: functional; conditions: PC-3, 96 h
[19] = Toxicity in Kunming mouse assessed as morphological change in kidney at 100 mg/kg,po administration for 2 weeks; type: organism-based; conditions: in vivo, 336 h
[20] = Toxicity in Kunming mouse assessed as change in serum AST level at 100 mg/kg,po administration for 2 weeks; type: organism-based; conditions: in vivo, 336 h
NCI-H446 [21] = assay: Antitumor activity against human NCI-H446 cells xenografted with BALB/c mouse assessed as tumor growth inhibition at 50 mg/kg,po administrated once daily for 21 days relative to control; type: functional; conditions: NCI-H446, 504 h, time 21 day, read-out: TGI
HCT-116 = assay: Antitumor activity against human HCT-116 cells xenografted with BALB/c mouse assessed as tumor growth inhibition at 100 mg/kg,po administrated once daily for 21 days relative to control; type: functional; conditions: HCT-116, 504 h, time 21 day, read-out: TGI
[22] = biological target: T1, DNA topoisomerase 1 (Homo sapiens); assay: Inhibition of Topoisomerase I (unknown origin) using pBR322 DNA as substrate at 2 uM incubated for 15 mins by EtBr staining based agarose gel electrophoresis method
[23] = biological target: T1, DNA topoisomerase 1 (Homo sapiens); assay: Inhibition of Topoisomerase I (unknown origin) using pBR322 DNA as substrate at 1 uM incubated for 15 mins by EtBr staining based agarose gel electrophoresis method
NCI-H446 [24] = assay: Antitumor activity against human NCI-H446 cells xenografted with BALB/c mouse assessed as tumor growth inhibition by measuring T/C ratio at 100 mg/kg,po administrated once daily for 21 days; type: functional; conditions: time 21 day

Sequence of DNA topoisomerase 2-alpha (Homo sapiens) (P11388 whole entry): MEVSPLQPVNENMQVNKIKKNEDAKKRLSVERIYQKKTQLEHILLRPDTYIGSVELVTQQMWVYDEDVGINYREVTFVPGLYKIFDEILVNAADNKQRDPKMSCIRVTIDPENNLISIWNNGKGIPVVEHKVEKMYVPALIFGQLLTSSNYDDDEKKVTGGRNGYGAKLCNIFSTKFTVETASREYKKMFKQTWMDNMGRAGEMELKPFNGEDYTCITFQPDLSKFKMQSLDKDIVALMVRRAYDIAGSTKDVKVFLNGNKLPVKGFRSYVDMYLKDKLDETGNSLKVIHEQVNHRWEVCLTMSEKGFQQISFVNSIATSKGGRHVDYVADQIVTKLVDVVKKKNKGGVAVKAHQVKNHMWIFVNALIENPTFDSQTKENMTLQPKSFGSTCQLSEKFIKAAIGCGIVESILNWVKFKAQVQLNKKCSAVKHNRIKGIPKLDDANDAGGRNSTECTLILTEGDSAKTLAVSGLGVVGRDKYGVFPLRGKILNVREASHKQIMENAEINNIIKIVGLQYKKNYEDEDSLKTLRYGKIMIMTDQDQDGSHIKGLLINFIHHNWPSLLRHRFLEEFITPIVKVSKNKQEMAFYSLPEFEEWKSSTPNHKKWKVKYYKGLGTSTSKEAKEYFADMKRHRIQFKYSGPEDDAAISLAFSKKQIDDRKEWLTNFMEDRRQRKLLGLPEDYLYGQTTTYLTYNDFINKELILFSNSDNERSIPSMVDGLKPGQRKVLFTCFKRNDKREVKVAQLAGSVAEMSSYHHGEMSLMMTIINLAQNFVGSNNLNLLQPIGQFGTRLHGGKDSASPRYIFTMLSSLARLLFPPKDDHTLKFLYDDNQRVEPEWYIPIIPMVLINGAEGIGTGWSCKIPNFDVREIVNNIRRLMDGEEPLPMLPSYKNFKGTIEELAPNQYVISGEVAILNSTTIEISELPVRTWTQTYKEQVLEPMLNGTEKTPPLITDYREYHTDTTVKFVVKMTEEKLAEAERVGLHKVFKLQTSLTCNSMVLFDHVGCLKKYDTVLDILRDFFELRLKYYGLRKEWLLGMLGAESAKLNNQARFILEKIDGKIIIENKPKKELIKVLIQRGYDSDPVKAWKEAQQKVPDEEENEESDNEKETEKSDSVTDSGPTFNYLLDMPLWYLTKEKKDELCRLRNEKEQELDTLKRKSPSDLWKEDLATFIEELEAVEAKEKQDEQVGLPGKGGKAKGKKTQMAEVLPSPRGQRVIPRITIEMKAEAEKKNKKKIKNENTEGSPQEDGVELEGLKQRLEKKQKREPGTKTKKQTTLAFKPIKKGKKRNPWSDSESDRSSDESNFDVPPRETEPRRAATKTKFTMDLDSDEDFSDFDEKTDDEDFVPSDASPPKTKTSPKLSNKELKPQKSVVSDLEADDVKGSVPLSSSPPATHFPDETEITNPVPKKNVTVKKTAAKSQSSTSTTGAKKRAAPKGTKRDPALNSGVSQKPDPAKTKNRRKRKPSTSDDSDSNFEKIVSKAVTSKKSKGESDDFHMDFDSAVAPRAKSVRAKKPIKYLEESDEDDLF

With `COc1ccc2c(c1)c1ncc3ccccc3c1n2CCCC(=O)NO` the LD50 at 336 h [1] was greater than 1000 mg/kg, the Cmax [2] was 109 ng/mL and the inhibition [3] was “Active”. For the same compound, the Activity [4] was “Non-Toxic”, the IC50 (MCF7) was 670 nM and the Activity [5] was “Non-Toxic”. The Activity (NCI-H446 [6]) was “Active”, the inhibition [7] was “Active” and the inhibition at 1 µM (NCI-H446 [8]) was greater than 90%. The IC50 (NCI-H1650) was 1020 nM, the IC50 (NCI-H2228) was 2340 nM and the Activity [9] was “Non-Toxic”. The IC50 (A549) was 2510 nM, the inhibition [10] was greater than 95% and the Activity (NCI-H446 [11]) was 60.3%. For the same compound, the Activity [12] was “Non-Toxic”, the Activity (NCI-H446 [13]) was “Active” and the Activity [14] was “Non-Toxic”. For the same compound, the Activity [15] was “Non-Toxic”, the IC50 at 96 h [16] was greater than 10000 nM and the Tmax [17] was 1 h. For the same compound, the half-life [18] was 1.15 h, the IC50 (PC-3) was 970 nM and the Activity [19] was “Non-Toxic”. The Activity [20] was “Non-Toxic”.

In the case of `CN(C)CCCn1c2cc3c(cc2c2ncc4ccccc4c21)OCO3`, the LD50 at 336 h [1] is reported as greater than 1000 mg/kg, the Cmax [2] is reported as 284 ng/mL and the inhibition [3] is reported as “Active”. For the same compound, the Activity [4] was “Non-Toxic”, the IC50 (MCF7) was 350 nM and the Activity [5] was “Non-Toxic”. For the same compound, the Activity (NCI-H446 [6]) was “Active”, the inhibition [7] was “Active” and the inhibition at 1 µM (NCI-H446 [8]) was greater than 90%. The IC50 (NCI-H1650) was 880 nM, the IC50 (NCI-H2228) was 880 nM and the Activity [9] was “Non-Toxic”. The IC50 (A549) was 1100 nM, the inhibition [10] was greater than 95% and the Activity (NCI-H446 [11]) was 61.1%. The inhibition in vivo at 50 mg/kg (NCI-H446 [21]) was 49.2%, the inhibition in vivo at 100 mg/kg (HCT-116) was 77.4% and the Activity [12] was “Non-Toxic”. The Activity (NCI-H446 [13]) was “Active”, the Activity [14] was “Non-Toxic” and the Activity [15] was “Non-Toxic”. The inhibition [22] was “Active”, the IC50 at 96 h [16] was 9570 nM and the Tmax [17] was 2 h. For the same compound, the inhibition [23] was “Active”, the half-life [18] was 1.66 h and the IC50 (PC-3) was 400 nM. The T/C (NCI-H446 [24]) was 35.2%, the Activity [19] was “Non-Toxic” and the Activity [20] was “Non-Toxic”.
